Laboratory results as given in BindingDB's records for doi:10.1021/jm9707028 (Boehringer Ingelheim Pharmaceuticals, 1998).

Experiments:
Test in all cases: HIV-1 RT Assay
[1] = target: T1, Gag-Pol polyprotein [600-1027,Y787L]/[600-1155,Y787L] (Human immunodeficiency virus 1, UniProt P03366, Y787L)
T1 construct: 600-1027; 600-1155

[2] = target: T2, Gag-Pol polyprotein [600-1027,R876K]/[600-1155] (Human immunodeficiency virus 1, UniProt P03366, R876K)
T2 construct: 600-1027; 600-1155

[3] = target: T3, Gag-Pol polyprotein [600-1027,Y780C]/[600-1155,Y780C] (Human immunodeficiency virus 1, UniProt P03366, Y780C)
T3 construct: 600-1027; 600-1155

CCN1c2ncc(CCc3ccnc(C)c3)cc2C(=O)N(C)c2cccnc21 [2-ethyl-9-methyl-13-[2-(2-methylpyridin-4-yl)ethyl]-2,4,9,15-tetraazatricyclo[9.4.0.0^{3,8}]pentadeca-1(15),3(8),4,6,11,13-hexaen-10-one]
IC50 [1]: > 1000 nM

CCN1c2ncc(CCc3ccc(C)cc3)cc2C(=O)N(C)c2cccnc21 [2-ethyl-9-methyl-13-[2-(4-methylphenyl)ethyl]-2,4,9,15-tetraazatricyclo[9.4.0.0^{3,8}]pentadeca-1(11),3,5,7,12,14-hexaen-10-one]
IC50 [1]: > 1000 nM | IC50 [2]: 100 nM

CCN1c2ncc(C(=O)O)cc2C(=O)N(C)c2cccnc21 [2-ethyl-9-methyl-10-oxo-2,4,9,15-tetraazatricyclo[9.4.0.0^{3,8}]pentadeca-1(11),3,5,7,12,14-hexaene-13-carboxylic acid]
IC50 ([2]; pH 7.8, 22 °C): > 1000 nM

CCN1c2ncc(CCc3ccnc(CO)c3)cc2C(=O)N(C)c2ccc(Cl)nc21 [5-chloro-2-ethyl-13-{2-[2-(hydroxymethyl)pyridin-4-yl]ethyl}-9-methyl-2,4,9,15-tetraazatricyclo[9.4.0.0^{3,8}]pentadeca-1(15),3(8),4,6,11,13-hexaen-10-one]
IC50 [1]: > 1000 nM

CCN1c2ncc(CCc3ccccc3C)cc2C(=O)N(C)c2ccc(Cl)nc21 [5-chloro-2-ethyl-9-methyl-13-[2-(2-methylphenyl)ethyl]-2,4,9,15-tetraazatricyclo[9.4.0.0^{3,8}]pentadeca-1(15),3(8),4,6,11,13-hexaen-10-one]
IC50 [3]: > 1000 nM | IC50 [1]: > 1000 nM | IC50 [2]: > 1000 nM

CCN1c2ncc(CCc3cccc(N=[N+]=[N-])c3)cc2C(=O)N(C)c2ccc(Cl)nc21 [13-[2-(3-azidophenyl)ethyl]-5-chloro-2-ethyl-9-methyl-2,4,9,15-tetraazatricyclo[9.4.0.0^{3,8}]pentadeca-1(15),3(8),4,6,11,13-hexaen-10-one]
IC50 [1]: > 1000 nM

CCN1c2ncc(CCc3ccccc3N)cc2C(=O)N(C)c2cccnc21 [13-[2-(2-aminophenyl)ethyl]-2-ethyl-9-methyl-2,4,9,15-tetraazatricyclo[9.4.0.0^{3,8}]pentadeca-1(15),3(8),4,6,11,13-hexaen-10-one]
IC50 [1]: > 1000 nM

CCN1c2ncc(CCc3ccc(N)cc3)cc2C(=O)N(C)c2ccc(Cl)nc21 [13-[2-(4-aminophenyl)ethyl]-5-chloro-2-ethyl-9-methyl-2,4,9,15-tetraazatricyclo[9.4.0.0^{3,8}]pentadeca-1(15),3(8),4,6,11,13-hexaen-10-one]
IC50 [1]: > 1000 nM

CCN1c2ncc(CCc3ccncc3)cc2C(=O)N(C)c2ccc(C#N)nc21 [2,8-Disubstituted Dipyridodiazepinone 38]
IC50 [1]: > 1000 nM

CCN1c2ncc(-c3cccc(OC)c3)cc2C(=O)N(C)c2cccnc21 [2-ethyl-13-(3-methoxyphenyl)-9-methyl-2,4,9,15-tetraazatricyclo[9.4.0.0^{3,8}]pentadeca-1(11),3,5,7,12,14-hexaen-10-one]
IC50 ([3]; pH 7.8, 22 °C): > 1000 nM | IC50 ([2]; pH 7.8, 22 °C): > 1000 nM

CCN1c2ncc(C)cc2C(=O)N(C)c2cccnc21 [2-ethyl-9,13-dimethyl-2,4,9,15-tetraazatricyclo[9.4.0.0^{3,8}]pentadeca-1(11),3,5,7,12,14-hexaen-10-one]
IC50 ([3]; pH 7.8, 22 °C): > 1000 nM

CCN1c2ncc(N)cc2C(=O)N(C)c2cccnc21 [13-amino-2-ethyl-9-methyl-2,4,9,15-tetraazatricyclo[9.4.0.0^{3,8}]pentadeca-1(11),3,5,7,12,14-hexaen-10-one]
IC50 ([2]; pH 7.8, 22 °C): 100 nM

CCN1c2ncc(CCc3ccnc(C(=O)O)c3)cc2C(=O)N(C)c2ccc(Cl)nc21 [2-Chloro-5,11-dihydro-11-ethyl-5-methyl-8-[2-(2-carboxypyrid-4-yl)ethyl]-6H-dipyrido[3,2-b:2 ,3-e][1,4]diazepin-6-one]
IC50 [1]: > 1000 nM

CCN1c2ncc(CCc3ccccn3)cc2C(=O)N(C)c2cccnc21 [2-ethyl-9-methyl-13-[2-(pyridin-2-yl)ethyl]-2,4,9,15-tetraazatricyclo[9.4.0.0^{3,8}]pentadeca-1(11),3,5,7,12,14-hexaen-10-one]
IC50 [3]: > 1000 nM | IC50 [1]: > 1000 nM

CCN1c2ncc(CCc3ccccc3)cc2C(=O)N(C)c2ccc(-c3ccc[nH]3)nc21 [2-ethyl-9-methyl-13-(2-phenylethyl)-5-(1H-pyrrol-2-yl)-2,4,9,15-tetraazatricyclo[9.4.0.0^{3,8}]pentadeca-1(15),3(8),4,6,11,13-hexaen-10-one]
IC50 [3]: 520 nM | IC50 [1]: 1280 nM | IC50 [2]: 590 nM

CCN1c2ncc(CCc3cccc(C)c3)cc2C(=O)N(C)c2ccc(Cl)nc21 [5-chloro-2-ethyl-9-methyl-13-[2-(3-methylphenyl)ethyl]-2,4,9,15-tetraazatricyclo[9.4.0.0^{3,8}]pentadeca-1(15),3(8),4,6,11,13-hexaen-10-one]
IC50 [1]: > 1000 nM

CCN1c2ncc(CCc3cncnc3)cc2C(=O)N(C)c2cccnc21 [2-ethyl-9-methyl-13-[2-(pyrimidin-5-yl)ethyl]-2,4,9,15-tetraazatricyclo[9.4.0.0^{3,8}]pentadeca-1(11),3,5,7,12,14-hexaen-10-one]
IC50 [3]: > 1000 nM | IC50 [1]: > 1000 nM

CCN1c2ncc(CCc3cccc(NS(C)(=O)=O)c3)cc2C(=O)N(C)c2ccc(Cl)nc21 [N-[3-(2-{5-chloro-2-ethyl-9-methyl-10-oxo-2,4,9,15-tetraazatricyclo[9.4.0.0^{3,8}]pentadeca-1(15),3(8),4,6,11,13-hexaen-13-yl}ethyl)phenyl]methanesulfonamide]
IC50 [1]: > 1000 nM

CCN1c2ncc(CCc3ccc(N)cc3)cc2C(=O)N(C)c2cccnc21 [13-[2-(4-aminophenyl)ethyl]-2-ethyl-9-methyl-2,4,9,15-tetraazatricyclo[9.4.0.0^{3,8}]pentadeca-1(15),3(8),4,6,11,13-hexaen-10-one]
IC50 [1]: > 1000 nM

CCN1c2ncc(CCc3ccc(NS(C)(=O)=O)cc3)cc2C(=O)N(C)c2ccc(Cl)nc21 [N-[4-(2-{5-chloro-2-ethyl-9-methyl-10-oxo-2,4,9,15-tetraazatricyclo[9.4.0.0^{3,8}]pentadeca-1(15),3(8),4,6,11,13-hexaen-13-yl}ethyl)phenyl]methanesulfonamide]
IC50 [1]: > 1000 nM

CCN1c2ncc(CCc3ccc4ccccc4c3)cc2C(=O)N(C)c2ccc(F)nc21 [2-ethyl-5-fluoro-9-methyl-13-[2-(naphthalen-2-yl)ethyl]-2,4,9,15-tetraazatricyclo[9.4.0.0^{3,8}]pentadeca-1(15),3(8),4,6,11,13-hexaen-10-one]
IC50 [1]: > 1000 nM

CCN1c2ncc(/C=C/c3ccncc3)cc2C(=O)N(C)c2cccnc21 [5,11-Dihydro-11-ethyl-5-methyl-8-[trans-2-(4-pyridyl)ethen-1-yl]-6H-dipyrido[3,2-b:2 ,3-e][1,4]diazepin-6-one]
IC50 [3]: > 1000 nM

CCN1c2ncc(CCc3cccc(N)c3)cc2C(=O)N(C)c2cccnc21 [13-[2-(3-aminophenyl)ethyl]-2-ethyl-9-methyl-2,4,9,15-tetraazatricyclo[9.4.0.0^{3,8}]pentadeca-1(15),3(8),4,6,11,13-hexaen-10-one]
IC50 [1]: > 1000 nM

CCN1c2ncc(CCc3cccc(C)c3)cc2C(=O)N(C)c2cccnc21 [2-ethyl-9-methyl-13-[2-(3-methylphenyl)ethyl]-2,4,9,15-tetraazatricyclo[9.4.0.0^{3,8}]pentadeca-1(11),3,5,7,12,14-hexaen-10-one]
IC50 [1]: > 1000 nM

CCN1c2ncc(/C=C/C(=O)OC)cc2C(=O)N(C)c2cccnc21 [methyl (2E)-3-{2-ethyl-9-methyl-10-oxo-2,4,9,15-tetraazatricyclo[9.4.0.0^{3,8}]pentadeca-1(11),3,5,7,12,14-hexaen-13-yl}prop-2-enoate]
IC50 ([2]; pH 7.8, 22 °C): > 1000 nM

CCN1c2ncc(CCc3ccc4ccccc4c3)cc2C(=O)N(C)c2cccnc21 [2-ethyl-9-methyl-13-[2-(naphthalen-2-yl)ethyl]-2,4,9,15-tetraazatricyclo[9.4.0.0^{3,8}]pentadeca-1(15),3(8),4,6,11,13-hexaen-10-one]
IC50 [1]: > 1000 nM

CCN1c2ncc(CCc3ccc(C)cc3)cc2C(=O)N(C)c2ccc(Cl)nc21 [5-chloro-2-ethyl-9-methyl-13-[2-(4-methylphenyl)ethyl]-2,4,9,15-tetraazatricyclo[9.4.0.0^{3,8}]pentadeca-1(15),3(8),4,6,11,13-hexaen-10-one]
IC50 [1]: > 1000 nM

CCN1c2ncc(CCc3ccncc3)cc2C(=O)N(C)c2cccnc21 [2-ethyl-9-methyl-13-[2-(pyridin-4-yl)ethyl]-2,4,9,15-tetraazatricyclo[9.4.0.0^{3,8}]pentadeca-1(11),3,5,7,12,14-hexaen-10-one]
IC50 [3]: 130 nM | IC50 [1]: > 1000 nM | IC50 [2]: 50 nM

CCN1c2ncc(CCc3cccnc3)cc2C(=O)N(C)c2cccnc21 [2-ethyl-9-methyl-13-[2-(pyridin-3-yl)ethyl]-2,4,9,15-tetraazatricyclo[9.4.0.0^{3,8}]pentadeca-1(11),3,5,7,12,14-hexaen-10-one]
IC50 [1]: > 1000 nM | IC50 [2]: 30 nM

CCN1c2ncc(CCc3nccs3)cc2C(=O)N(C)c2cccnc21 [2-ethyl-9-methyl-13-[2-(1,3-thiazol-2-yl)ethyl]-2,4,9,15-tetraazatricyclo[9.4.0.0^{3,8}]pentadeca-1(11),3,5,7,12,14-hexaen-10-one]
IC50 [1]: > 1000 nM

CCN1c2ncc(CCc3ccc4ccccc4c3)cc2C(=O)N(C)c2ccc(Cl)nc21 [5-chloro-2-ethyl-9-methyl-13-[2-(naphthalen-2-yl)ethyl]-2,4,9,15-tetraazatricyclo[9.4.0.0^{3,8}]pentadeca-1(15),3(8),4,6,11,13-hexaen-10-one]
IC50 [1]: > 1000 nM

CCN1c2ncc(CCc3ccccc3C)cc2C(=O)N(C)c2cccnc21 [2-ethyl-9-methyl-13-[2-(2-methylphenyl)ethyl]-2,4,9,15-tetraazatricyclo[9.4.0.0^{3,8}]pentadeca-1(11),3,5,7,12,14-hexaen-10-one]
IC50 [1]: > 1000 nM

CCN1c2ncc(Cl)cc2C(=O)N(C)c2cccnc21 [13-chloro-2-ethyl-9-methyl-2,4,9,15-tetraazatricyclo[9.4.0.0^{3,8}]pentadeca-1(11),3,5,7,12,14-hexaen-10-one]
IC50 ([3]; pH 7.8, 22 °C): > 1000 nM
